Source: US8420594B2, “Inhibitors of MRP4 and agents stimulating MRP4 activity for the treatment of cardiac disorders” (INSERM (Institute de la Sante et de la Recherche Medicale), priority 2008, dated 2013)
Read-outs that look alike come from different tables or passages of the source.

What was measured:
PDE3 [1] = test: Chronotropic effect of PDE3 inhibitor, telemetric ECG (RR interval) in WT and MRP4 KO mice; assay type: in vivo; conditions: for heart rate: wild-type mice
Experimental: (§1) Animal models. MRP4 ablated mice (MRP4 KO) were generated and genotyped as described (Leggas, M. et al. Mol Cell Biol 24, 7612-21 (2004). Wild-type and homozygous MRP4-KO mice (8-10 weeks of age) were subjected to left ventricular pressure overload by transverse aortic constriction (TAC), as previously described (Rockman, et al. Proc Natl Acad Sci USA 88, 8277-81 (1991). Five weeks after the procedure, the animals were sacrified and heart and body weights were determined. As a model of β-adenergic overstimulation miniosmotic pumps (Alzet) containing (−)-isoproterenol-bitartrate (Sigma Aldrich) (delivering 20 μg/g/day each) were implanted subcutaneously into 10-12 weeks old animals. Determination of heart weights and analysis of gene expression were carried out after 14 days of continuous infusion. Finally, male MRP4 KO mice and WT littermate were subjected to voluntary exercise. The animals were 10-12 weeks at the start of the study. Individual animals were housed in a cage with free access to a 11.5-cm-diameter running wheel with a 5.0-cm-wide running surface equipped with a digital magnetic counter (model BC 1200, Sigma Sport) that is activated by wheel rotation. Daily exercise values for time and distance run were recorded for each exercised animal throughout the duration of the exercise period.
Telemetry studies. Long-term telemetric ambulatory ECG measurements were performed in wild type and knock out male mice at 3 months of age. Six-lead restrained ECG monitoring of conscious animals (hamsters and mice) were performed with EasyCG® tools system (EMKA technologies, France) formed by the four sensors of ecgTUNNEL® system platform and a translucent animal sizefitting half-tunnel. Each animal was put inside the tunnel, which was then closed, assuring the animal to be properly restrained. The four wires of the platform were connected to a wireless transmitter and amplifier system (emkaPACK®, EMKA technologies). Telemetric ECG tracing were obtained in conscious mice during quiet awake time at daytime. To minimize the effects of stress, animals were allowed to stay in the restraining system for 5 min before starting ECG recordings. […] Six leads of ECG were recorded during 15 to 20 min using specific software (iox®, EMKA technologies): three leads were measured (L1, L2, L3), and three were calculated (aVR, aVL, aVF). Dedicated software (Ecg-auto®, EMKA technologies) was used to measure RR interval, SDNN and HRV index. If needed, raw data were submitted to a 50-Hz notch filter with an automatic setting determined by the software.

β-adrenergic system = test: Chronic β-adrenergic stimulation, isoproterenol-induced cardiac hypertrophy; assay type: in vivo; conditions: 20 μg/g/day for 2 weeks by miniosmotic pumps, 3 month-old MRP4 KO vs WT mice
Experimental: as §1, with “period. […]” for “period.”

PDE3 [2] = tested on: PDE3
Experimental: Briefly, mice were euthanized by cervical dislocation, the heart rapidly excised and retrogradely perfused at 37° C. for 6-8 min with a modified tyrode solution (in mM: NaCl113, KCL 4.7, KH2PO4 0.6, Na2HPO4 0.6, MgSO4 1.2, NaHCO3 12, KHCO3 10, HEPES10 Taurine 30, pH=7.4) containing 1 mg.ml-1 of liberase (Roche, France). Isolated myocytes were then transferred to the same solution, free of enzyme, containing 1 mM CaCl2.
In addition, we have measured the effect of PDE3 inhibition by cilostamide on the contractility of ventricular myocytes isolated from WT and MRP4 KO mice.

PDE3 [3] = tested on: PDE3; remark: listed apart in the source
Experimental: Cardiac ventricular myocytes were enzymatically dissociated using standard procedures (Fauconnier, J. et al. Diabetes, 2007). Briefly, mice were euthanized by cervical dislocation, the heart rapidly excised and retrogradely perfused at 37° C. for 6-8 min with a modified tyrode solution (in mM: NaCl113, KCL 4.7, KH2PO4 0.6, Na2HPO4 0.6, MgSO4 1.2, NaHCO3 12, KHCO3 10, HEPES10 Taurine 30, pH=7.4) containing 1 mg.ml-1 of liberase (Roche, France). Isolated myocytes were then transferred to the same solution, free of enzyme, containing 1 mM CaCl2.
Cells were loaded for 30 min at RT with Fluo-4 AM (5 μmol/l, Molecular Probes). Cells were then field-stimulated at 1 Hz with a 1-2 ms current pulse delivered via two platinum electrodes, one on each side of the perfusion chamber. Changes in Fluo-4 fluorescence were recorded using an LSM510 Meta Zeiss confocal microscope equipped with a 63× water immersion objective (NA: 1.2). Measurements were performed in line-scan mode (1.5 ms/line) and scanning was carried out along the long axis of the cell. An excitation wavelength of 488 nm was used, and emitted light was collected through a 505 nm long pass filter. The laser intensity used (3-6% of the maximum) had no noticeable deleterious effect on the fluorescence signal or on cell function over the time-course of the experiment. To enable comparisons between cells, the change in fluorescence (ΔF) was divided by the fluorescence detected immediately before the 0.5 Hz stimulation pulse (F0).

## Cc1[nH]c(=O)c(C#N)cc1-c1ccncc1 [Milrinone]
PDE3 [1]; 0.1 mg/kg, MRP4 KO mice
  RR interval: significant decrease
PDE3 [1]; 0.1 mg/kg
  heart rate: not changing heart rate
PDE3 [1]; 1 mg/kg, MRP4 KO mice compared to wild-type mice
  decrease in RR interval: significantly higher
PDE3 [1]; 1 mg/kg
  heart rate: acceleration of heart rate
PDE3 [1]; MRP4 KO mice compared to wild-type
  chronotropic dose-effect: dramatically enhanced

## CC(C)NC[C@H](O)c1ccc(O)c(O)c1 [Isoproterenol, (−)-isoproterenol-bitartrate]
β-adrenergic system
  cardiac hypertrophy (HW/TL ratio): significantly more important

## CN(C(=O)CCCOc1ccc2[nH]c(=O)ccc2c1)C1CCCCC1 [Cilostamide]
PDE3 [2]; MRP4 KO compared to WT
  contractility increase, MRP4 KO vs WT: significantly more
PDE3 [2]; MRP4 KO mice myocytes
  contractility of ventricular myocytes: increased
PDE3 [2]; WT mice myocytes
  contractility of ventricular myocytes: increased
PDE3 [3]; MRP4 KO mice myocytes
  Ca2+ transient amplitude (ΔF/F0): increased
  Ca2+ transient half width: decreased
  Ca2+ transient rate of decay t: decreased
  Ca2+ transient rate of rise (ΔF/F0.ms−1): decreased
PDE3 [3]; myocytes isolated from WT heart
  Ca2+ transient: no effect
